In patent publication US7592478B2, “Ligand antagonists of RAR receptors and pharmaceutical/cosmetic applications thereof” (Galderma Research & Development, priority 2002, dated 2009):

Assays:
Assay type in all cases: cell-based
[1] = target: T1, RAR alpha (Homo sapiens, UniProt P10276); assay: Transactivation test (luciferase reporter, stably transfected HeLa cells), RAR alpha; details: for Kd: Schild regression vs reference agonist 4-[2-(5,5,8,8-tetramethyl-5,6,7,8-tetrahydro-2-naphthyl)propenyl]benzoic acid, read-out: RAR alpha Kdapp; for IC50: at the reference agonist concentration that gives 80% activation
T1 sequence (P10276 183-417 limits assumed): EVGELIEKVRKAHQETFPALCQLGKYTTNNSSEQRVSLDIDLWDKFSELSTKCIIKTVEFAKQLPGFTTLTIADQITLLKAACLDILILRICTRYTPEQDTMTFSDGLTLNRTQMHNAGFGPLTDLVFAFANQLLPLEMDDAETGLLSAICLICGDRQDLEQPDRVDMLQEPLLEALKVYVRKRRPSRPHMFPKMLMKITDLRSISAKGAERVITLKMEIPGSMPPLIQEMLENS
Method: (§1) The activation of receptors with an agonist (activator) in HeLa cells leads to the expression of a reporter gene, luciferase, which, in the presence of a substrate, generates light. The activation of the receptors may thus be measured by quantifying the luminescence produced after incubating the cells in the presence of a reference agonist. The inhibitory products displace the agonist from its site, thus preventing activation of the receptor. The activity is measured by quantifying the reduction in light produced. This measurement makes it possible to determine the inhibitory activity of the compounds according to the invention.
(§2) In this study, a constant is determined which represents the affinity of the molecule for the receptor. Since this value can fluctuate depending on the basal activity and the expression of the receptor, it is referred to as the Kd apparent (KdApp).
(§3) To determine this constant, “crossed curves” of the test product against a reference agonist, 4-[2-(5,5,8,8-tetramethyl-5,6,7,8-tetrahydro-2-naphthyl)propenyl]benzoic acid, are performed in 96-well plates. The test product is used at 10 concentrations and the reference agonist at 7 concentrations. In each well, the cells are in contact with a concentration of the test product and a concentration of the reference agonist, 4-[2-(5,5,8,8-tetramethyl-5,6,7,8-tetrahydro-2-naphthyl)propenyl]benzoic acid. Measurements are also taken for the total agonist (4-[2-(5,5,8,8-tetramethyl-5,6,7,8-tetrahydro-2-naphthyl)propenyl]benzoic acid) and inverse agonist, 4-{(E)-3-[4-(4-tert-butylphenyl)-5,5,8,8-tetramethyl-5,6,7,8-tetrahydro-2-naphthyl]-3-oxopropenyl}benzoic acid, controls.
(§4) These crossed curves make it possible to determine the AC50 values (concentration at which 50% activation is observed) for the reference ligand at various concentrations of test product. These AC50 values are used to calculate the Schild regression by plotting a straight line corresponding to the Schild equation (“quantitation in receptor pharmacology” Terry P. Kenakin, Receptors and Channels, 2001, 7, 371-385).
(§5) In the case of an antagonist, an IC50 value (concentration that inhibits 50% of the activity) is calculated by plotting the curve of the product at the concentration of the reference ligand that gives 80% activation.
(§6) The HeLa cell lines used are stable transfectants containing the plasmids ERE-βGlob-Luc-SV-Neo (reporter gene) and RAR (α, β, γ) ER-DBD-puro. These cells are inoculated into 96-well plates at a rate of 10000 cells per well in 100 μl of DMEM medium without phenol red, and supplemented with 10% defatted calf serum. The plates are then incubated at 37° C. and 7% CO2 for 4 hours.
(§7) The various dilutions of the test products, of the reference ligand (4-[2-(5,5,8,8-tetramethyl-5,6,7,8-tetrahydro-2-naphthyl)propenyl]benzoic acid), of the 100% control (100 nM 4-[2-(5,5,8,8-tetramethyl-5,6,7,8-tetrahydro-2-naphthyl)propenyl]benzoic acid) and of the 0% control (500 nM 4-{(E)-3-[4-(4-tert-butylphenyl)-5,5,8,8-tetramethyl-5,6,7,8-tetrahydro-2-naphthyl]-3-oxopropenyl}benzoic acid) are added at a rate of 5 μl per well. The plates are then incubated for 18 hours at 37° C. and 7% CO2.
(§8) The culture medium is removed by turning over and 100 μl of a 1:1 PBS/luciferine mixture is added to each well. After 5 minutes, the plates are read using the luminescence reader.

[2] = target: T2, RAR beta (Homo sapiens, UniProt P10826); assay: Transactivation test (luciferase reporter, stably transfected HeLa cells), RAR beta; details: for Kd: Schild regression vs reference agonist 4-[2-(5,5,8,8-tetramethyl-5,6,7,8-tetrahydro-2-naphthyl)propenyl]benzoic acid, read-out: RAR beta Kdapp; for IC50: at the reference agonist concentration that gives 80% activation
T2 sequence (P10826 183-417 limits assumed): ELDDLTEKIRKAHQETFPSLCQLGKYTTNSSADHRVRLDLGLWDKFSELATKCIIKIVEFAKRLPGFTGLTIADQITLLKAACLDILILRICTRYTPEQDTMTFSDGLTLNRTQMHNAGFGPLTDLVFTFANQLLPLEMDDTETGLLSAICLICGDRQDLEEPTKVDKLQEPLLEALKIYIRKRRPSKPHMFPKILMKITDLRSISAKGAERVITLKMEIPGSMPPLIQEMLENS
Method: as §1, §2, §3, §4, §5, §6, §7, §8

[3] = target: T3, RAR gamma (Homo sapiens, UniProt P13631); assay: Transactivation test (luciferase reporter, stably transfected HeLa cells), RAR gamma; details: for Kd: Schild regression vs reference agonist 4-[2-(5,5,8,8-tetramethyl-5,6,7,8-tetrahydro-2-naphthyl)propenyl]benzoic acid, read-out: RAR gamma Kdapp; for IC50: at the reference agonist concentration that gives 80% activation
T3 sequence (P13631 185-419 limits assumed): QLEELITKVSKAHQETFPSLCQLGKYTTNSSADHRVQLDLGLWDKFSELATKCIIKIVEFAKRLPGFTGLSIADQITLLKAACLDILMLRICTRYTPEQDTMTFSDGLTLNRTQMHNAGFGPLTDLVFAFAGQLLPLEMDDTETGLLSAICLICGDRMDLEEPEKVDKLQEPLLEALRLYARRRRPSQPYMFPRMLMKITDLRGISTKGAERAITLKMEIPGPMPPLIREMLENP
Method: as §1, §2, §3, §4, §5, §6, §7, §8

Row | Kd [1] [nM] | IC50 [1] [nM] | Kd [2] [nM] | IC50 [2] [nM] | Kd [3] [nM] | IC50 [3] [nM] | SMILES
1 | 500 | 875 | 120 | 192 | 60 | 150 | CN(C)c1ccc(C2=CCC(C)(C)c3cc(C(O)C#Cc4ccc(C(=O)O)cc4)ccc32)cc1 (stereo not drawn) [Example 19, 4-{3-[5-(4-Dimethylaminophenyl)-8,8-dimethyl-7,8-dihydro-2-naphthyl]-3-hydroxyprop-1-ynyl}benzoic acid]
2 | 30 | 52.5 | 8 | 12.8 | 2 | 5 | Cc1ccc(C2=CCC(C)(C)c3cc([Se]C#Cc4ccc(C(=O)O)cc4)ccc32)cc1 [Example 1, 4-(8,8-Dimethyl-5-p-tolyl-7,8-dihydro-2-naphthylselanylethynyl)benzoic acid]
3 | 120 | 210 | 8 | 12.8 | 2 | 5 | Cc1ccc(C2=CCC(C)(C)c3cc([Se]C#Cc4ccc(C(=O)O)c(F)c4)ccc32)cc1 [Example 9, 4-(8,8-Dimethyl-5-p-tolyl-7,8-dihydro-2-naphthylselanylethynyl)-2-fluorobenzoic acid]
